Source: ChEMBL document CHEMBL1201862, “PubChem BioAssay data set” (2004)
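Protocol summary: plate cells (96-well), add compound at 5 concentrations, incubate 48 h, interpolate endpoints linearly. GI50 = concentration required for 50% inhibition of growth.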 Calls of active or inactive are those of the source. No stated cut-off is given here; in the data, active = GI50 up to about 1.1 µM and inactive = higher.

Legend:
Test in all cases: DTP human tumour cell line panel, 48 h
HCT-116 = test system: HCT-116
NCI-H460 = test system: NCI-H460
NCI-H522 = test system: NCI-H522
M19-MEL = test system: M19-MEL
U-251 = test system: U-251
OVCAR-8 = test system: OVCAR-8
A498 = test system: A498
OVCAR-4 = test system: OVCAR-4
DMS-114 = test system: DMS-114
M14 = test system: M14
HOP-18 = test system: HOP-18
SF-268 = test system: SF-268
ACHN = test system: ACHN
HL-60 = test system: HL-60
HOP-62 = test system: HOP-62
SNB-75 = test system: SNB-75
DLD-1 = test system: DLD-1
A549 = test system: A549
LXFL 529 = test system: LXFL 529
SW-620 = test system: SW-620
MOLT-4 = test system: MOLT-4
NCI-H226 = test system: NCI-H226
SNB-78 = test system: SNB-78
SK-OV-3 = test system: SK-OV-3
UACC-62 = test system: UACC-62
CAKI-1 = test system: CAKI-1
HCT-15 = test system: HCT-15
KM-20L2 = test system: KM-20L2
SR = test system: SR
TK-10 = test system: TK-10
HCC 2998 = test system: HCC 2998
CCRF-CEM = test system: CCRF-CEM
IGROV-1 = test system: IGROV-1
786-0 = test system: 786-0
SK-MEL-28 = test system: SK-MEL-28
SN12C = test system: SN12C
SK-MEL-2 = test system: SK-MEL-2
DMS-273 = test system: DMS-273
COLO 205 = test system: COLO 205
K562 = test system: K562
RPMI-8226 = test system: RPMI-8226
RXF 393 = test system: RXF 393
SF-539 = test system: SF-539
UACC-257 = test system: UACC-257
Malme-3M = test system: Malme-3M
KM12 = test system: KM12
SNB-19 = test system: SNB-19
UO-31 = test system: UO-31
SK-MEL-5 = test system: SK-MEL-5
HOP-92 = test system: HOP-92
HT-29 = test system: HT-29
SF-295 = test system: SF-295
OVCAR-3 = test system: OVCAR-3
EKVX = test system: EKVX
LOX IMVI = test system: LOX IMVI
NCI-H23 = test system: NCI-H23
OVCAR-5 = test system: OVCAR-5

Q: With `O=C1C2C3CC4C5C3C1C5C1(SCCS1)C42` (stereo not drawn) as the molecule, how does the GI50 (HCT-116) read?
A: > 100 µM (inactive)

Q: What about the GI50 (NCI-H460) of the same molecule?
A: > 100 µM (inactive)

Q: And the GI50 (NCI-H522)?
A: > 100 µM (inactive)

Q: What about the GI50 (M19-MEL) of the same molecule?
A: > 100 µM (inactive)

Q: And the GI50 (U-251)?
A: > 100 µM (inactive)

Q: And the GI50 (OVCAR-8)?
A: > 100 µM (inactive)

Q: What about the GI50 (A498) of the same molecule?
A: > 100 µM (inactive)

Q: And the GI50 (OVCAR-4)?
A: > 100 µM (inactive)

Q: What about the GI50 (DMS-114) of the same molecule?
A: > 100 µM (inactive)

Q: And the GI50 (M14)?
A: > 100 µM (inactive)

Q: What about the GI50 (HOP-18) of the same molecule?
A: > 100 µM (inactive)

Q: And the GI50 (SF-268)?
A: > 100 µM (inactive)

Q: And the GI50 (ACHN)?
A: > 100 µM (inactive)

Q: And the GI50 (HL-60)?
A: > 100 µM (inactive)

Q: And the GI50 (HOP-62)?
A: > 100 µM (inactive)

Q: What about the GI50 (SNB-75) of the same molecule?
A: > 100 µM (inactive)

Q: What about the GI50 (DLD-1) of the same molecule?
A: > 100 µM (inactive)

Q: And the GI50 (A549)?
A: > 100 µM (inactive)

Q: And the GI50 (LXFL 529)?
A: > 100 µM (inactive)

Q: What about the GI50 (SW-620) of the same molecule?
A: > 100 µM (inactive)

Q: What about the GI50 (MOLT-4) of the same molecule?
A: > 100 µM (inactive)

Q: And the GI50 (NCI-H226)?
A: > 100 µM (inactive)

Q: What about the GI50 (SNB-78) of the same molecule?
A: > 100 µM (inactive)

Q: And the GI50 (SK-OV-3)?
A: > 100 µM (inactive)

Q: What about the GI50 (UACC-62) of the same molecule?
A: > 100 µM (inactive)

Q: What about the GI50 (CAKI-1) of the same molecule?
A: > 100 µM (inactive)

Q: And the GI50 (HCT-15)?
A: > 100 µM

Q: And the GI50 (KM-20L2)?
A: > 100 µM (inactive)

Q: And the GI50 (SR)?
A: > 100 µM (inactive)

Q: What about the GI50 (TK-10) of the same molecule?
A: > 100 µM (inactive)

Q: What about the GI50 (HCC 2998) of the same molecule?
A: > 100 µM (inactive)

Q: What about the GI50 (CCRF-CEM) of the same molecule?
A: > 100 µM (inactive)

Q: What about the GI50 (IGROV-1) of the same molecule?
A: > 100 µM (inactive)

Q: And the GI50 (786-0)?
A: > 100 µM (inactive)

Q: What about the GI50 (SK-MEL-28) of the same molecule?
A: > 100 µM (inactive)

Q: And the GI50 (SN12C)?
A: > 100 µM (inactive)

Q: What about the GI50 (SK-MEL-2) of the same molecule?
A: > 100 µM (inactive)

Q: What about the GI50 (DMS-273) of the same molecule?
A: > 100 µM (inactive)

Q: What about the GI50 (COLO 205) of the same molecule?
A: > 100 µM (inactive)

Q: And the GI50 (K562)?
A: > 100 µM (inactive)

Q: And the GI50 (RPMI-8226)?
A: > 100 µM (inactive)

Q: And the GI50 (RXF 393)?
A: > 100 µM (inactive)

Q: And the GI50 (SF-539)?
A: > 100 µM (inactive)

Q: And the GI50 (UACC-257)?
A: > 100 µM (inactive)

Q: And the GI50 (Malme-3M)?
A: > 100 µM (inactive)

Q: And the GI50 (KM12)?
A: > 100 µM (inactive)

Q: And the GI50 (SNB-19)?
A: > 100 µM (inactive)

Q: What about the GI50 (UO-31) of the same molecule?
A: > 100 µM (inactive)

Q: And the GI50 (SK-MEL-5)?
A: > 100 µM (inactive)

Q: `CC(C)CC(NC(=O)c1cccc(O)c1O)C(=O)NCc1cc(CNC(=O)C(CC(C)C)NC(=O)c2cccc(O)c2O)cc(CNC(=O)C(CC(C)C)NC(=O)c2cccc(O)c2O)c1` (stereo not drawn) was tested. Which GI50 (HOP-92) did it give?
A: 14.6 µM (inactive)

Q: And the GI50 (HCT-116)?
A: 15.9 µM (inactive)

Q: What about the GI50 (HT-29) of the same molecule?
A: 13.3 µM (inactive)

Q: And the GI50 (NCI-H460)?
A: 14 µM (inactive)

Q: What about the GI50 (NCI-H522) of the same molecule?
A: 3.92 µM (inactive)

Q: What about the GI50 (U-251) of the same molecule?
A: 11.1 µM (inactive)

Q: And the GI50 (OVCAR-8)?
A: 40.6 µM (inactive)

Q: What about the GI50 (A498) of the same molecule?
A: 24.8 µM (inactive)

Q: What about the GI50 (OVCAR-4) of the same molecule?
A: 13.9 µM (inactive)

Q: What about the GI50 (DMS-114) of the same molecule?
A: 5.13 µM (inactive)

Q: What about the GI50 (HOP-18) of the same molecule?
A: 24 µM (inactive)

Q: And the GI50 (SF-268)?
A: 8.13 µM (inactive)

Q: And the GI50 (ACHN)?
A: 22.2 µM (inactive)

Q: And the GI50 (HL-60)?
A: 4.34 µM (inactive)

Q: And the GI50 (HOP-62)?
A: 15 µM (inactive)

Q: And the GI50 (SNB-75)?
A: 20.6 µM (inactive)

Q: And the GI50 (SF-295)?
A: 15.5 µM (inactive)

Q: What about the GI50 (DLD-1) of the same molecule?
A: 20.9 µM (inactive)

Q: What about the GI50 (OVCAR-3) of the same molecule?
A: 4.33 µM (inactive)

Q: What about the GI50 (EKVX) of the same molecule?
A: 12.6 µM (inactive)

Q: And the GI50 (A549)?
A: 18.6 µM (inactive)

Q: And the GI50 (LXFL 529)?
A: 2.82 µM (inactive)

Q: What about the GI50 (SW-620) of the same molecule?
A: 17.2 µM (inactive)

Q: What about the GI50 (MOLT-4) of the same molecule?
A: 11.4 µM (inactive)

Q: What about the GI50 (NCI-H226) of the same molecule?
A: 14.7 µM (inactive)

Q: What about the GI50 (LOX IMVI) of the same molecule?
A: 8.63 µM (inactive)

Q: And the GI50 (SNB-78)?
A: 29.1 µM (inactive)

Q: What about the GI50 (SK-OV-3) of the same molecule?
A: 9.44 µM (inactive)

Q: What about the GI50 (UACC-62) of the same molecule?
A: 4.49 µM (inactive)

Q: And the GI50 (CAKI-1)?
A: 46.3 µM (inactive)

Q: What about the GI50 (HCT-15) of the same molecule?
A: 23.1 µM

Q: What about the GI50 (KM-20L2) of the same molecule?
A: 7.11 µM (inactive)

Q: And the GI50 (SR)?
A: 8.36 µM (inactive)

Q: And the GI50 (TK-10)?
A: 16.2 µM (inactive)

Q: And the GI50 (NCI-H23)?
A: 15.6 µM (inactive)

Q: And the GI50 (HCC 2998)?
A: 7.8 µM (inactive)

Q: And the GI50 (CCRF-CEM)?
A: 4.91 µM (inactive)

Q: And the GI50 (IGROV-1)?
A: 5.66 µM (inactive)

Q: What about the GI50 (786-0) of the same molecule?
A: 42 µM (inactive)

Q: And the GI50 (SK-MEL-28)?
A: 13.7 µM (inactive)

Q: And the GI50 (SN12C)?
A: 12.8 µM (inactive)

Q: What about the GI50 (SK-MEL-2) of the same molecule?
A: 7.05 µM (inactive)

Q: What about the GI50 (DMS-273) of the same molecule?
A: 15.6 µM (inactive)

Q: And the GI50 (COLO 205)?
A: 16.6 µM (inactive)

Q: And the GI50 (K562)?
A: 18.9 µM (inactive)

Q: What about the GI50 (RPMI-8226) of the same molecule?
A: 4.14 µM (inactive)

Q: And the GI50 (OVCAR-5)?
A: 10.8 µM (inactive)

Q: What about the GI50 (SF-539) of the same molecule?
A: 5.47 µM (inactive)

Q: What about the GI50 (UACC-257) of the same molecule?
A: 20.1 µM (inactive)

Q: And the GI50 (Malme-3M)?
A: 19.6 µM (inactive)

Q: And the GI50 (KM12)?
A: 13.8 µM (inactive)

Q: What about the GI50 (SNB-19) of the same molecule?
A: 13.6 µM (inactive)

Q: And the GI50 (UO-31)?
A: 12.3 µM (inactive)

Q: What about the GI50 (SK-MEL-5) of the same molecule?
A: 12.8 µM (inactive)
